Consider 15 compounds from publication PMC12166061, “Crystallographic fragment screening reveals ligand hotspots in TRIM21 PRY-SPRY domain” (Communications Chemistry, 2025).

Like-named read-outs stand apart in the source and are kept apart here.

Holding throughout (assay type): binding
Assay [1] deals with T1, His-SUMO-hTRIM21 PRY-SPRY (Homo sapiens, UniProt P19474).
T1 construct: Human TRIM21 PRY-SPRY domain (residues V287-I465, UniProt-ID: P19474); made in house; host or cells: E. coli BL21(DE3)
The experiment in a line: SPR fragment screening, human TRIM21 PRY-SPRY. As for the experimental part:
(§1) His-mTRIM21 PRYSPRY and His-SUMO-hTRIM21 PRY-SPRY were immobilized onto flow channels (FC) FC2, FC3, and FC4 of a Series S sensor chip NTA (Cytiva). […] Proteins (10–20 µg mL^−1 in HBS-P+) were injected at 10 µL min^−1 to achieve response levels of 3500–4300 RU for mTRIM21 and 3600–4000 RU for hTRIM21. Flow channel 1 (FC1) was used as a reference surface. Surface deactivation and nickel stripping were achieved using 1 M ethanolamine and 350 mM ethylenediaminetetraacetic acid (EDTA), respectively.
(§2) Fragment screening was conducted by injecting 500 µM fragments diluted in running buffer (HBS-P+ with 1 mM TCEP and 2% (v/v) dimethyl sulfoxide (DMSO)) over all flow-channels for 30 s at 30 µL/min^−1. To account for surface drift, 50 µM of a control compound (Suramin) was injected every 15 fragment injections, and blank injections were performed every 5 fragments. Responses were analyzed by blank subtraction, reference subtraction (FC1), solvent correction, molecular weight adjustment, and drift correction using Biacore T200 Evaluation Software v3.2.1. The binding threshold for fragment hits was set based on the Suramin-binding response level.

A further assay deals with T2, His-mTRIM21 PRYSPRY (Mus musculus, UniProt Q62191).
T2 construct: mouse TRIM21 PRY-SPRY domain (residues V291-M470, UniProt-ID: Q62191); made in house; host or cells: E. coli BL21(DE3)
T2 sequence (Q62191 291-470): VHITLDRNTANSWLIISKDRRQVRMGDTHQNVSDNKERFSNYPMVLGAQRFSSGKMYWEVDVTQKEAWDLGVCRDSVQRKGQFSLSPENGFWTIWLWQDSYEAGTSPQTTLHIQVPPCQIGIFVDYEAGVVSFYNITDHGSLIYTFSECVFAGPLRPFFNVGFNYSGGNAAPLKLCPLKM
The experiment in a line: SPR fragment screening and dose response, mouse TRIM21 PRY-SPRY. On the procedure: as §1, §2
The data was solvent-corrected, reference-subtracted (FC1), and blank-subtracted using the T200 Evaluation Software v3.2.1. Sensorgrams were subsequently replotted using Graphpad v.9 software.

The target in assay [2] is T3, human TRIM21 PRY-SPRY domain (Homo sapiens, UniProt P19474).
T3 construct: Human TRIM21 PRY-SPRY domain (residues V287-I465, UniProt-ID: P19474); His6 (N, cleaved yes); SUMO (N, cleaved yes); made in house; host or cells: E. coli BL21(DE3)
The assay can be described thus: Differential scanning fluorimetry (DSF, ΔTm), human TRIM21 PRY-SPRY domain. On the procedure:
(§3) Briefly, recombinant murine and human TRIM21 PRY-SPRY domain at a concentration of 8 μM were mixed with 2 mM compound in their respective SEC buffer. SYPRO Orange (5000×, Invitrogen) was added as a fluorescence probe (1 µl per mL). Subsequently, temperature-dependent protein unfolding profiles were measured using the QuantStudio™ 5 realtime PCR machine (Thermo Fisher). Excitation and emission filters were set to 465 nm and 590 nm, respectively. The temperature was raised with a step rate of 3 °C per minute. Data points were analysed with the internal software (Thermal Shift SoftwareTM Version 1.4, Thermo Fisher) using the Boltzmann equation to determine the inflection point of the transition curve.
On the technique in general: DSF heats the sample and reads unfolding from a dye or from intrinsic fluorescence.

The target of assay [3] is T4, murine TRIM21 PRY-SPRY domain (Mus musculus, UniProt Q62191).
T4 construct: mouse TRIM21 PRY-SPRY domain (residues V291-M470, UniProt-ID: Q62191); made in house; host or cells: E. coli BL21(DE3)
T4 sequence (Q62191 291-470): T2 sequence (Q62191 291-470)
The experiment in a line: Differential scanning fluorimetry (DSF, ΔTm), mouse TRIM21 PRY-SPRY domain. On the procedure: as §3

The mark [4] stands for this setting: single dose 500 µM fragment, relative response, suramin reference threshold 100 relative RU.

T1 sequence (P19474 287-465): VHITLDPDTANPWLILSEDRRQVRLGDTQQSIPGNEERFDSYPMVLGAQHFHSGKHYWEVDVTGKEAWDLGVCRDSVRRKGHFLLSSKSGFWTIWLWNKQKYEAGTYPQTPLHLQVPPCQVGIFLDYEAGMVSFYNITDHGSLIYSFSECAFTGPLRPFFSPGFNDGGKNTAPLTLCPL
T3 sequence (P19474 287-465): as above

Regarding `O=C(O)C1CCCN(C(=O)Cc2ccc(F)cc2)C1` (stereo not shown) [Fragment Z85893853], the “SPR hTRIM21 (Response)” value in assay [1] (setting [4]) came to 49.09. Also, the “SPR mTRIM21 (Response)” value at His-mTRIM21 PRYSPRY (setting [4]) is on record as 60.46. In addition, the “Tm-Shift hTRIM21” value in assay [2] (2 mM compound, 8 μM protein) is -0.1 °C. The “Tm-shift mTRIM21” value in assay [3] (2 mM compound, 8 μM protein) is -0.4 °C.

For `Cc1nc2[nH]c(C(C)C)cc(=O)n2n1` [Fragment Z111634612], the “SPR hTRIM21 (Response)” value in assay [1] (setting [4]) is reported as 61.58. Besides, at His-mTRIM21 PRYSPRY (setting [4]), the “SPR mTRIM21 (Response)” value worked out at 63.45. The “Tm-Shift hTRIM21” value in assay [2] (2 mM compound, 8 μM protein) is -0.4 °C. Besides, the “Tm-shift mTRIM21” value in assay [3] (2 mM compound, 8 μM protein) is -0.4 °C.

As for `CS(=O)(=O)Cc1nc2ccccc2[nH]1` [Fragment Z126932614], the “SPR hTRIM21 (Response)” value in assay [1] (setting [4]) is recorded as 80.74. Further, the “SPR mTRIM21 (Response)” value on His-mTRIM21 PRYSPRY (setting [4]) was 65.26. Also, the “Tm-Shift hTRIM21” value in assay [2] (2 mM compound, 8 μM protein) was -0.2 °C. The “Tm-shift mTRIM21” value in assay [3] (2 mM compound, 8 μM protein) is -0.1 °C.

`CC(NS(C)(=O)=O)c1ccccc1Cl` (stereo not shown) [Fragment Z133729708]: in assay [1] (setting [4]), the “SPR hTRIM21 (Response)” value was found to be 74.68. On His-mTRIM21 PRYSPRY (setting [4]), the “SPR mTRIM21 (Response)” value was 60.52. Besides, in assay [2] (2 mM compound, 8 μM protein), the “Tm-Shift hTRIM21” value is -0.7 °C. Further, the “Tm-shift mTRIM21” value in assay [3] (2 mM compound, 8 μM protein) was -0.8 °C.

Turning to `CNC(=O)c1ccc(S(N)(=O)=O)cc1` [Fragment Z165170770], the “SPR hTRIM21 (Response)” value in assay [1] (setting [4]) is 49.74. Moreover, the “SPR mTRIM21 (Response)” value on His-mTRIM21 PRYSPRY (setting [4]) is listed as 49.37. In addition, the “Tm-Shift hTRIM21” value in assay [2] (2 mM compound, 8 μM protein) worked out at 0 °C. Moreover, the “Tm-shift mTRIM21” value in assay [3] (2 mM compound, 8 μM protein) is -0.4 °C.

`NC(=O)N1CCN(C(=O)c2ccco2)CC1` [Fragment Z198194396]: the “SPR hTRIM21 (Response)” value in assay [1] (setting [4]) was 34.19. Also, the “SPR mTRIM21 (Response)” value at His-mTRIM21 PRYSPRY (setting [4]) is given as 38.54. Besides, the “Tm-Shift hTRIM21” value in assay [2] (2 mM compound, 8 μM protein) is -0.2 °C. The “Tm-shift mTRIM21” value in assay [3] (2 mM compound, 8 μM protein) is -0.2 °C.

With `CC(NC(=O)C1CC1)c1cccnc1` (stereo not shown) [Fragment Z220996120], in assay [1] (setting [4]), the “SPR hTRIM21 (Response)” value is 149.8. On His-mTRIM21 PRYSPRY (setting [4]), the “SPR mTRIM21 (Response)” value is given as 171.5. Moreover, in assay [2] (2 mM compound, 8 μM protein), the “Tm-Shift hTRIM21” value came to 0 °C. Also, the “Tm-shift mTRIM21” value in assay [3] (2 mM compound, 8 μM protein) was -0.1 °C.

Regarding `Nc1ccc(S(=O)(=O)Nc2ccccn2)cc1` [Fragment Z271004858], in assay [1] (setting [4]), the “SPR hTRIM21 (Response)” value is 79.01. Besides, at His-mTRIM21 PRYSPRY (setting [4]), the “SPR mTRIM21 (Response)” value stood at 106.3. In addition, the “Tm-Shift hTRIM21” value in assay [2] (2 mM compound, 8 μM protein) is -0.1 °C. In addition, the “Tm-shift mTRIM21” value in assay [3] (2 mM compound, 8 μM protein) was -0.1 °C.

`Cc1cc(N2CCNCC2)nc(C)n1` [Fragment Z274575916]: in assay [1] (setting [4]), the “SPR hTRIM21 (Response)” value is 76.44. On His-mTRIM21 PRYSPRY (setting [4]), the “SPR mTRIM21 (Response)” value is recorded as 164.1. In assay [2] (2 mM compound, 8 μM protein), the “Tm-Shift hTRIM21” value was found to be 0.2 °C. Moreover, the “Tm-shift mTRIM21” value in assay [3] (2 mM compound, 8 μM protein) is 0 °C.

On to `O=C(NC1CC1)c1cnn2cccnc12` [Fragment Z285642082], for which the “SPR hTRIM21 (Response)” value in assay [1] came out at 43.71. Also, the “SPR mTRIM21 (Response)” value on His-mTRIM21 PRYSPRY is 44.74. In assay [2], the “Tm-Shift hTRIM21” value was -0.2 °C. In assay [3], the “Tm-shift mTRIM21” value is -0.3 °C.

With `NC(=S)Nc1ccccc1OC(F)(F)F` [Fragment Z291279160], the “SPR hTRIM21 (Response)” value in assay [1] turned out to be 45.42. Moreover, the “SPR mTRIM21 (Response)” value on His-mTRIM21 PRYSPRY came out at 37.66. Besides, in assay [2], the “Tm-Shift hTRIM21” value is -0.2 °C. Further, the “Tm-shift mTRIM21” value in assay [3] is -0.4 °C.

In the case of `Cc1nccn1Cc1cccc(C#N)c1` [Fragment Z319545618], in assay [1], the “SPR hTRIM21 (Response)” value amounted to 11.39. Besides, the “SPR mTRIM21 (Response)” value on His-mTRIM21 PRYSPRY stood at 30.53. Also, the “Tm-Shift hTRIM21” value in assay [2] came out at 0 °C. For the same compound, the “Tm-shift mTRIM21” value in assay [3] is -0.3 °C.

For `CC(C)N(C)c1ncnc2c1cnn2C` [Fragment Z328695024], the “SPR hTRIM21 (Response)” value in assay [1] (setting [4]) was 48.11. For the same compound, the “SPR mTRIM21 (Response)” value on His-mTRIM21 PRYSPRY (setting [4]) was 47.77. Moreover, the “Tm-Shift hTRIM21” value in assay [2] (2 mM compound, 8 μM protein) was -0.6 °C. The “Tm-shift mTRIM21” value in assay [3] (2 mM compound, 8 μM protein) is -0.6 °C.

In the case of `CN(CC(=O)N1CCCCC1)S(C)(=O)=O` [Fragment Z363071686], the “SPR hTRIM21 (Response)” value in assay [1] is listed as 20.46. Also, the “SPR mTRIM21 (Response)” value at His-mTRIM21 PRYSPRY came to 39.85. Also, the “Tm-Shift hTRIM21” value in assay [2] was -0.2 °C. For the same compound, the “Tm-shift mTRIM21” value in assay [3] was -0.1 °C.

With `OCc1cn(-c2ccc(Cl)cc2)nn1` [Fragment Z1374778753], in assay [1], the “SPR hTRIM21 (Response)” value stood at 114.8. Moreover, the “SPR mTRIM21 (Response)” value at His-mTRIM21 PRYSPRY was determined as 169.5.
